Common to all, as to format: in vivo
For assay [1], the system named is soybean (Glycine max -- var. Winchester). Kind of assay: pre-emergence herbicidal activity, soybean. As to conditions: 1 kg/Ha, about fourteen days, read-out: pre-emergence herbicidal activity (% control) SOY. Summed up:
(§1)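 Seeds sown in flats of soil mix were sprayed pre-emergence with test compound in water/acetone at 1 kg/Ha. Flats were held about fourteen days beside untreated controls, then phytotoxicity was scored as percent control (0 = no effect, 100 = complete control).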

Assay [2] relates to wheat (Triticum aestivum var. Lew). Briefly: pre-emergence herbicidal activity, wheat. The following applies: 1 kg/Ha, about fourteen days, read-out: pre-emergence herbicidal activity (% control) WHT. Summed up:
as §1

Assay [3] deals with field corn (Zea mays var. Pioneer 3732). Kind of assay: pre-emergence herbicidal activity, corn. As to conditions: 1 kg/Ha, about fourteen days, read-out: pre-emergence herbicidal activity (% control) CRN. Summed up:
as §1

Assay [4] deals with velvetleaf (Abutilon theophrasti). Briefly: pre-emergence herbicidal activity, velvetleaf. As to conditions: 1 kg/Ha, about fourteen days, read-out: pre-emergence herbicidal activity (% control) ABUTH. Summed up:
as §1

Assay [5] has as its system morningglory (Ipomea lacunosa or Ipomea hederacea). Briefly: pre-emergence herbicidal activity, morningglory. As to conditions: Ipomoea, 1 kg/Ha, about fourteen days, read-out: pre-emergence herbicidal activity (% control) IPOSS. The gist of the method: as §1
The test system of assay [6] is common chickweed (Stellaria media). Briefly: pre-emergence herbicidal activity, chickweed. The following applies: 1 kg/Ha, about fourteen days, read-out: pre-emergence herbicidal activity (% control) STEME. The gist of the method:
as §1

The subject of assay [7] is common cocklebur (Xanthium strumarium L.). Briefly: pre-emergence herbicidal activity, cocklebur. The following applies: 1 kg/Ha, about fourteen days, read-out: pre-emergence herbicidal activity (% control) XANPE. Summed up:
as §1

Assay [8] has as its system blackgrass (Aloepecurus myosuroides). Briefly: pre-emergence herbicidal activity, blackgrass. As to conditions: Alopecurus myosuroides, 1 kg/Ha, about fourteen days, read-out: pre-emergence herbicidal activity (% control) ALOMY. Summed up:
as §1

The subject of assay [9] is green foxtail (Setaria viridis). Briefly: pre-emergence herbicidal activity, green foxtail. As to conditions: 1 kg/Ha, about fourteen days, read-out: pre-emergence herbicidal activity (% control) SETVI. The gist of the method: as §1
In assay [10] the test system is soybean (Glycine max -- var. Winchester). Briefly: post-emergence herbicidal activity, soybean. The following applies: 1 Kg/Ha, about fourteen days, read-out: post-emergence herbicidal activity (% control) SOY. The gist of the method:
(§2)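 Application rate was 1 Kg/Ha, sprayed post-emergence from a water/acetone solution onto flat-grown plants. Injury is expressed as percent control, 100 meaning complete control, assessed roughly two weeks later.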

In assay [11] the test system is wheat (Triticum aestivum var. Lew). Briefly: post-emergence herbicidal activity, wheat. The following applies: 1 Kg/Ha, about fourteen days, read-out: post-emergence herbicidal activity (% control) WHT. The gist of the method:
as §2

The test system of assay [12] is field corn (Zea mays var. Pioneer 3732). Kind of assay: post-emergence herbicidal activity, corn. The following applies: 1 Kg/Ha, about fourteen days, read-out: post-emergence herbicidal activity (% control) CRN. The gist of the method:
as §2

The test system of assay [13] is velvetleaf (Abutilon theophrasti). Briefly: post-emergence herbicidal activity, velvetleaf. As to conditions: 1 Kg/Ha, about fourteen days, read-out: post-emergence herbicidal activity (% control) ABUTH. The gist of the method:
as §2

The subject of assay [14] is morningglory (Ipomea lacunosa or Ipomea hederacea). Kind of assay: post-emergence herbicidal activity, morningglory. As to conditions: Ipomoea, 1 Kg/Ha, about fourteen days, read-out: post-emergence herbicidal activity (% control) IPOSS. The gist of the method:
as §2

Assay [15] deals with common chickweed (Stellaria media). Kind of assay: post-emergence herbicidal activity, chickweed. The following applies: 1 Kg/Ha, about fourteen days, read-out: post-emergence herbicidal activity (% control) STEME. Summed up: as §2
Assay [16] concerns common cocklebur (Xanthium strumarium L.). Briefly: post-emergence herbicidal activity, cocklebur. As to conditions: 1 Kg/Ha, about fourteen days, read-out: post-emergence herbicidal activity (% control) XANPE. The gist of the method: as §2
The subject of assay [17] is blackgrass (Aloepecurus myosuroides). Briefly: post-emergence herbicidal activity, blackgrass. The following applies: Alopecurus myosuroides, 1 Kg/Ha, about fourteen days, read-out: post-emergence herbicidal activity (% control) ALOMY. The protocol:
This example sets forth the methods of herbicidal testing conducted on the specific compounds set forth below. Specifically, the compounds referenced below were tested for pre- and post-emergence herbicidal activity using a variety of crops and weeds. The test plants include, but are not limited to, soybean (Glycine max -- var. Winchester), field corn (Zea mays var. Pioneer 3732), wheat (Triticum aestivum var. Lew), morningglory (Ipomea lacunosa or Ipomea hederacea), velvetleaf (Abutilon theophrasti), green foxtail (Setaria viridis), Johnsongrass (Sorghum halepense), blackgrass (Aloepecurus myosuroides), common chickweed (Stellaria media), and common cocklebur (Xanthium strumarium L.).
In the post-emergence test, seeds of the plant species named above were planted in flats containing the appropriate soil mixture where they were maintained to allow the seeds to germinate. When the plants in these flats reached the proper stage of growth, flats for the pre-emergence tests were planted in a like manner. The flats containing the post-emergence and pre-emergence test plant species were then sprayed with an appropriately concentrated water/acetone solution of test compound. Once treated the flats were maintained, along with untreated controls, for about fourteen days. All treated plants were then examined for phytotoxicity, which was expressed as percent control where 0 is no effect and 100 is complete control. Effective rates of application for the compounds of the present invention range from 0.001 to 3 kg/ha, more likely from […] to 1 Kg/ha.
Herbicidal activity data at selected application rates are in Tables 4 and 5. The test compounds are identified by numbers correspond to those in Table 1.
SOY is soybean, WHT is wheat, CRN is corn, ABUTH is velvetleaf, IPOSS is
morningglory, STEME is chickweed, XANPE is cocklebur, ALOMY is blackgrass,
Rate of application of test compound is 1 Kg/Ha. The definitions as shown under Table 4 apply to Table 5.

For assay [18], the system named is green foxtail (Setaria viridis). Briefly: post-emergence herbicidal activity, green foxtail. The following applies: 1 Kg/Ha, about fourteen days, read-out: post-emergence herbicidal activity (% control) SETVI. The gist of the method: as §2

Molecules are shown by their SMILES.

Take `CC(C)N1Cc2c(-n3nc4n(c3=O)CCCC4)ccc(Cl)c2C1=O` [Compound 83, 2-[7-chloro-2-(1-methylethyl)isoindolin-1-on-4-yl]-5,6,7,8-tetrahydro-1,2,4-triazolo[4,3-A]pyridin-3(2H)-one]: the activity at 1000 g/ha in assay [1] was 5%; in assay [2] it was 10%; in [3] it was 0%; in assay [4], 100%; in [5], 60%; in [6] it was 100%. Also, the activity at 1000 g/ha in assay [7] came out at 30%; in assay [8], 50%; in assay [9] it was 60%; in assay [10], 80%; in [11], 30%; in assay [12], 60%. The activity at 1000 g/ha in assay [13] came out at 100%; in assay [14] it was 90%; in [15], 80%; in assay [16], 60%; in [17] it was 50%; in assay [18] it was 60%.

Consider `Cn1c(C(F)(F)F)cc(=O)n(-c2ccc(Cl)c3c2CN(CCF)C3=O)c1=O` [Compound 78], for which the activity at 1000 g/ha in assay [1], in [2], in assay [3], in [4], in assay [5] and in assay [6] was 100% throughout. For the same compound, the activity at 1000 g/ha in assay [7], in assay [8], in assay [9], in assay [10], in [11] and in assay [12] was 100% throughout. Besides, the activity at 1000 g/ha in assay [13], in assay [14], in assay [15], in [16], in assay [17] and in [18] was 100% throughout.

As for `CC(C)N1Cc2c(c(Cl)cc(Cl)c2N2C(=O)C3=C(CCCC3)C2=O)C1=O` [Compound 82, 1-[5,7-dichloro-2-(1-methylethyl)isoindolin-1-on-4-yl]-3,4,5,6-tetrahydrophthalimide], the activity at 1000 g/ha in assay [1] is 70%; in assay [2] it was 60%; in assay [3], 80%; in assay [4], 100%; in assay [5], 100%; in [6] it was 100%. The activity at 1000 g/ha was 95% in [7]; 70% in [8]; 100% in assay [9]; 60% in [10]; 40% in assay [11]; 65% in assay [12]. Besides, the activity at 1000 g/ha in assay [13] came to 100%; in assay [14], 95%; in [15] it was 85%; in assay [16], 100%; in assay [17], 100%; in assay [18], 100%.

`CCOC(=O)Cn1c(C(F)(F)F)cc(=O)n(-c2ccc(Cl)c3c2CN(C(C)C)C3=O)c1=O` [Compound 74]: the activity at 1000 g/ha in assay [1] came out at 5%; in assay [2], 0%; in assay [3], 0%; in assay [4] it was 5%; in [5], 20%; in [6] it was 10%. Further, the activity at 1000 g/ha in [7] was found to be 30%; in assay [8], 10%; in assay [9], 5%; in assay [10], 40%; in assay [11], 10%; in [12], 30%. Besides, the activity at 1000 g/ha in assay [13] was 20%; in assay [14], 30%; in assay [15] it was 20%; in assay [16], 20%; in assay [17], 30%; in assay [18], 10%.
